Data published in PMC6070925, “Genome Mining of Non-Conventional Yeasts: Search and Analysis of MAL Clusters and Proteins” (Genes, 2018).

Key:
Assay in all cases: glucose release, recombinant E. coli extract
Type in all cases: biochemical
Conditions in all cases: 100 mM substrate, K-phosphate pH 6.5, 0.1 mM EDTA, 30 °C
MAL62 (Sc MAL62) [1] = biological target: T1, MAL62 (Sc MAL62) (Saccharomyces cerevisiae, UniProt P07265)
T1 construct: gene from plasmid pY6 cloned into pURI3-Cter, expressed in E. coli BL21 (DE3), crude cell extract
T1 sequence (P07265 whole entry): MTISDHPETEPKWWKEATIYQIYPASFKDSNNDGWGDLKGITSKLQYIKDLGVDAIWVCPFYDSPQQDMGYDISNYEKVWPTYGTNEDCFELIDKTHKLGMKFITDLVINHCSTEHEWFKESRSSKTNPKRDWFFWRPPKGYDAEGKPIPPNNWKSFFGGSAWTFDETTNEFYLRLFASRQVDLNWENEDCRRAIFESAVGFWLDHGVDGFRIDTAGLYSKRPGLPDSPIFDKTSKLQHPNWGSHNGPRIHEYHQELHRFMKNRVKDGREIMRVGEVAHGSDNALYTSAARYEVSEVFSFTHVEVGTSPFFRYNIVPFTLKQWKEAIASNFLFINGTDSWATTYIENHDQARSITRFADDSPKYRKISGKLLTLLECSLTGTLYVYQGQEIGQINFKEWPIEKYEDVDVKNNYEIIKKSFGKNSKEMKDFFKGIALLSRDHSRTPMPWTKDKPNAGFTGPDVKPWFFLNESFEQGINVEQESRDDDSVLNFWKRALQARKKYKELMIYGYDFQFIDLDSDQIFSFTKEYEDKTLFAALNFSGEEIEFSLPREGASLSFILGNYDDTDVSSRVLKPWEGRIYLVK

MAL7 (Ss MAL7) = biological target: T2, MAL7 (Ss MAL7) (Scheffersomyces stipitis, UniProt A3LUP5)
T2 construct: gene PCR-cloned from genomic DNA into pURI3-Cter, expressed in E. coli BL21 (DE3), crude cell extract
T2 sequence (A3LUP5 1-572): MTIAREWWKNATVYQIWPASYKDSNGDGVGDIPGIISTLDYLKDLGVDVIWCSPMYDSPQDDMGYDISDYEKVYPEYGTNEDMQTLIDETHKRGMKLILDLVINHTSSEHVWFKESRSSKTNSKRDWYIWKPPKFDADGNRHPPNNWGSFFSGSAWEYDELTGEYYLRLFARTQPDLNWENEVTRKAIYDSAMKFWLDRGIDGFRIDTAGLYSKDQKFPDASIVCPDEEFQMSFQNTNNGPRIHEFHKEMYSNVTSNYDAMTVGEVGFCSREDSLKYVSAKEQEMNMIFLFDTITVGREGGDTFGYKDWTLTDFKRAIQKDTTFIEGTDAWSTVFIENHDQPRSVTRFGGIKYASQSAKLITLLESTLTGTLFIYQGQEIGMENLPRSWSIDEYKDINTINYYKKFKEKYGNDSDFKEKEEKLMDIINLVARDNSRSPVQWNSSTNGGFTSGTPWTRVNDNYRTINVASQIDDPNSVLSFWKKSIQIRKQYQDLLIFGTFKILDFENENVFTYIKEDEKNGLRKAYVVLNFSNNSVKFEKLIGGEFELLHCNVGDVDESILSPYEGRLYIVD

MAL9 (Ss MAL9) = biological target: T3, MAL9 (Ss MAL9) (Scheffersomyces stipitis, UniProt A3GIC0)
T3 construct: gene PCR-cloned from genomic DNA into pURI3-Cter, expressed in E. coli BL21 (DE3), crude cell extract
T3 sequence (A3GIC0 1-573): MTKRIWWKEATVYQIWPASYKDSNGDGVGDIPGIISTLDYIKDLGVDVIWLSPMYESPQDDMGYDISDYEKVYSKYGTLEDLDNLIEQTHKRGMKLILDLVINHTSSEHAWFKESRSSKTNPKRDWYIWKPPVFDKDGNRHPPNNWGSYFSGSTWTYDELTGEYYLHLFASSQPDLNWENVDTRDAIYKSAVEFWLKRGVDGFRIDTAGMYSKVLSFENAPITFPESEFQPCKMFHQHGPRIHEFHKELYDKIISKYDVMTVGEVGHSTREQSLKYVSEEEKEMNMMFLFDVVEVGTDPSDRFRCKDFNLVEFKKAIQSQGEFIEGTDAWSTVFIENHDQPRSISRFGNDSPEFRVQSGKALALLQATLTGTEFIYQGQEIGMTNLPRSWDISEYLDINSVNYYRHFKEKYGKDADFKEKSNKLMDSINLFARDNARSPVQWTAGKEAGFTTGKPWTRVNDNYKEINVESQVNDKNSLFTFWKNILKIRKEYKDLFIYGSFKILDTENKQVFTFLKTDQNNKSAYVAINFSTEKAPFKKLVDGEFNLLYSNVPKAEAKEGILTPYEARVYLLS

MAL62 (Sc MAL62) [2] = biological target: T1, MAL62 (Sc MAL62); remark: listed apart in the source
MAL8 (Ss MAL8) = biological target: T4, MAL8 (Ss MAL8) (Scheffersomyces stipitis, UniProt A3LXA2)
T4 construct: gene PCR-cloned from genomic DNA into pURI3-Cter, expressed in E. coli BL21 (DE3), crude cell extract
T4 sequence (A3LXA2 1-572): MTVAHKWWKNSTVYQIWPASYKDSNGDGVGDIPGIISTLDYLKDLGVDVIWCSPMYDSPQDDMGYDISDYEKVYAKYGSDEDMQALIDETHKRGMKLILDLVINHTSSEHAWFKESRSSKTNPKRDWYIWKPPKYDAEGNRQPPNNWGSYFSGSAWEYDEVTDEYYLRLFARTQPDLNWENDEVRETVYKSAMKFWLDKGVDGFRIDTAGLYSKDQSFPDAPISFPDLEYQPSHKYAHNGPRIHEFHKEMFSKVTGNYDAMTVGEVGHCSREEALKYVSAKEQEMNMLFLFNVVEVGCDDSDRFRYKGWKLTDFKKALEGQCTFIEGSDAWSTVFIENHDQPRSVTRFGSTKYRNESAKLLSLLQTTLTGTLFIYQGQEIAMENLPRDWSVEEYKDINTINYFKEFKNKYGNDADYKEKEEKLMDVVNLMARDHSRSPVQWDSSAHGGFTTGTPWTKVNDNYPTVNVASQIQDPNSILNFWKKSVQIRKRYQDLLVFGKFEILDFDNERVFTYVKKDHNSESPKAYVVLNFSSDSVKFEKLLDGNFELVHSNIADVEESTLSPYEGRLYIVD

SMILES	specific activity (MAL62 (Sc MAL62) [1])	specific activity relative to sucrose (MAL7 (Ss MAL7))	specific activity relative to sucrose (MAL9 (Ss MAL9))	specific activity relative to sucrose (MAL62 (Sc MAL62) [2])	specific activity relative to sucrose (MAL8 (Ss MAL8))
OC[C@H]1O[C@@](CO)(O[C@H]2O[C@H](CO)[C@@H](O)[C@H](O)[C@H]2O)[C@@H](O)[C@@H]1O [sucrose]	behaved as a typical maltase using only maltose-like substrates	–	–	–	–
OC[C@H]1O[C@H](O[C@H]2[C@H](O)[C@@H](O)C(O)O[C@@H]2CO)[C@H](O)[C@@H](O)[C@@H]1O (some centres unmarked) [maltose]	–	all these enzymes hydrolyzed not only maltose-like substrates (maltose, sucrose)	all these enzymes hydrolyzed not only maltose-like substrates (maltose, sucrose)	behaved as a typical maltase using only maltose-like substrates	all these enzymes hydrolyzed not only maltose-like substrates (maltose, sucrose)
